Counter-ions that a name gives are not always drawn.
How the values were obtained:
[1] = target: T1, Na^+ /H^+ exchanger of rabbit erythrocytes (Oryctolagus cuniculus, UniProt P23791); assay: Inhibition of the Na+/H+ exchanger of rabbit erythrocytes (amiloride-sensitive sodium influx, flame photometry); type: cell-based, rabbit (White New Zealand); settings: pH 7.4, 37° C., hyperosmolar salt/sucrose medium
T1 construct: exchanger of rabbit erythrocytes; endogenous in cells; host or cells: erythrocytes from ear-artery blood of White New Zealand rabbits (Ivanovas) fed 2% cholesterol for six weeks
Description: Inhibitors of the Na^+ /H^+ exchanger of rabbit erythrocytes:
White New Zealand rabbits (Ivanovas) were given a standard diet with 2% of cholesterol for six weeks in order to activate the Na^+ /H^+ exchange so that the Na^+ influx into the erythrocytes via Na^+ /H^+ exchange can be determined by flame photometry. The blood was taken from the ear arteries and rendered uncoagulable by 25 IU/ml of heparin potassium. A portion of each sample was used for duplication determination of the hematocrit by centrifugation. Aliquots of in each case 100 μl were used for measurement of the initial Na^+ content of the erythrocytes.
To determine the amiloride-sensitive sodium influx, 100 μl of each blood sample were each incubated at pH 7.4 and 37° C. in 5 ml of a hyperosmolar salt/sucrose medium (mmol/l: 140 NaCl, 3 KCl, 150 sucrose, 0.1 ouabain, 20 tris-hydroxymethyl-aminomethane). The erythrocytes were then washed three times with ice-cold MgCl2 /ouabain solution (mmol/l: 112 MgCl2, 0.1 ouabain) and hemolyzed in 2.0 ml of distilled water. The intracellular sodium content was determined by flame photometry.
The net Na^+ influx was calculated from the difference between the initial sodium levels and the sodium content of the erythrocytes after incubation. […]

rat hearts = settings: isolated rat hearts, cited from earlier work

T1 sequence (P23791 whole entry): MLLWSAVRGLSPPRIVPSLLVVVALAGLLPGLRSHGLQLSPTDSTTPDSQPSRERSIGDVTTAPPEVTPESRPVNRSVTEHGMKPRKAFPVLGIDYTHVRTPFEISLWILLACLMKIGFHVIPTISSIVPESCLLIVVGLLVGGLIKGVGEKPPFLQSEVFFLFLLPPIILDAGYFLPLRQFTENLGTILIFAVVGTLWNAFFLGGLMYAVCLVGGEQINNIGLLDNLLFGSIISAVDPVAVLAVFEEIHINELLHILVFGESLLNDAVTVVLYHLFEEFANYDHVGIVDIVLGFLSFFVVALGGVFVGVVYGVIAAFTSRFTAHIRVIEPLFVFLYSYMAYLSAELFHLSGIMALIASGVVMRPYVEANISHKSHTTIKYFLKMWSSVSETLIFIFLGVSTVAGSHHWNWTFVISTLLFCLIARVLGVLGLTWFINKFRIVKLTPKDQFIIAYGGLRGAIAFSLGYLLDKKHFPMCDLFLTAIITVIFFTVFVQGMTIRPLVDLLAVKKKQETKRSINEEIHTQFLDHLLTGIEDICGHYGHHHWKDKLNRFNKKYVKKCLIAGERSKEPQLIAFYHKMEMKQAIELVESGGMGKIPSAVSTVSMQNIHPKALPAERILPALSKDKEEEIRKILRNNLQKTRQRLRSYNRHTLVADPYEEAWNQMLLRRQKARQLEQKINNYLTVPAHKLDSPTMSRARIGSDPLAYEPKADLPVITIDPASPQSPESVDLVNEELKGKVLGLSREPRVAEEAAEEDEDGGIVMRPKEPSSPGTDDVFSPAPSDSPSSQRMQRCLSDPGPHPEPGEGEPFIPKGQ

| IC50 [1] | SMILES | also measured |
| --- | --- | --- |
| < 1000 nM | C/C(=C\c1ccc(OCCCN(C)C)cc1)C(=O)N=C(N)N [Example 2, E-3-[4-(3-Dimethylaminopropoxy)phenyl)-2-methyl-propenoic acid guanidide dihydrochloride] | – |
| – | NC(N)=NC(=O)c1nc(Cl)c(N)nc1N [amiloride] | suppression of artificially induced ventricular fibrillation (rat hearts; Eur. Heart J. 9 (suppl. 1): 167 (1988)): suppressed completely |
| < 1000 nM | C/C(=C\c1ccc(N(C)C)cc1)C(=O)N=C(N)N [Example 1, E-3-(4-Dimethylaminophenyl)-2-methyl-propenoic acid guanidide hydrochloride] | – |
| – | CCN(c1nc(N)c(C(=O)N=C(N)N)nc1Cl)C(C)C [ethylisopropylanmiloride, Ethylisopropylamiloride] | potency in ventricular fibrillation model relative to amiloride (rat hearts; compared with amiloride): even more potent than amiloride |
